The NIST ThermoML archive (doi:10.1021/je100361s)
Numbers after ± are expanded uncertainties.

Details: 101.33 kPa, Liquid, Shanghai Precision & Scientific Instrument Co., LTD (DDS-307)

electrical conductivity (298.15 K) [S/m]	electrical conductivity (303.15 K) [S/m]	electrical conductivity (308.15 K) [S/m]	electrical conductivity (313.15 K) [S/m]	electrical conductivity (318.15 K) [S/m]	SMILES
4.4e-05 ± 2.6e-06	5.55e-05 ± 3.3e-06	6.58e-05 ± 4e-06	6.9e-05 ± 4.1e-06	8e-05 ± 4.8e-06	CCCCO [butan-1-ol]
	0.00287 ± 0.00017	0.00323 ± 0.00019	0.00349 ± 0.00021	0.00375 ± 0.00022	O [water]
5.2e-05 ± 3.1e-06	7e-05 ± 4.2e-06	7.5e-05 ± 4.5e-06	8.08e-05 ± 4.9e-06	8.43e-05 ± 5.1e-06	CC(C)O [propan-2-ol]
0.000413 ± 2.5e-05	0.000504 ± 3e-05	0.000584 ± 3.5e-05	0.000644 ± 3.9e-05	0.000711 ± 4.3e-05	CCO [ethanol]
